Data on 38 molecules can be found in US8859559B2, “Substituted pyrazines and their use in the treatment of disease” (Boehringer Ingelheim International GmbH, priority 2011, dated 2014).

For the experiment, the target named is T1, ENaC (Epithelial Sodium Channel) (Mus musculus, UniProt Q61180+Q9WU38+Q9WU39).
T1 construct: Mouse kidney M-1 cells were cultivated in DMEM; endogenous in cells; host or cells: Mouse kidney M-1 cells (dexamethasone-treated, on transwell filters)
T1 sequence (Q61180 1-699): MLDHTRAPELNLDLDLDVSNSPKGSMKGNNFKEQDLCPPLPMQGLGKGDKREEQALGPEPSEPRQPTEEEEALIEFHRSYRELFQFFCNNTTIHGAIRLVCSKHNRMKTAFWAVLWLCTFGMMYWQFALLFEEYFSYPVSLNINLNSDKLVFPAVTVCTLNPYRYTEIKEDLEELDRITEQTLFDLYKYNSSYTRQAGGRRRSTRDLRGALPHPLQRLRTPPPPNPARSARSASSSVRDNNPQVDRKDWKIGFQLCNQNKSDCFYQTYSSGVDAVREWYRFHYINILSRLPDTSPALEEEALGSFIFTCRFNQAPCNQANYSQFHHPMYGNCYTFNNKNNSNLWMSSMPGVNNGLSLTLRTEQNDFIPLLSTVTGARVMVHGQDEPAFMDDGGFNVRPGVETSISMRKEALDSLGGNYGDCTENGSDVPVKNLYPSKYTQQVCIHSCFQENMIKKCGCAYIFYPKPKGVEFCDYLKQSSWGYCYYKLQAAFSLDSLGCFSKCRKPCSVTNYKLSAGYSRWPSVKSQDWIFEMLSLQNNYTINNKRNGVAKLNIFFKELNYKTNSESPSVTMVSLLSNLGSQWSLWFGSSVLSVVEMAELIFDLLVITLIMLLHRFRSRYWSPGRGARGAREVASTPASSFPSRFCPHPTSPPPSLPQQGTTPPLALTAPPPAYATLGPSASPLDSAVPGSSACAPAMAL
T1 sequence (Q9WU38 1-638): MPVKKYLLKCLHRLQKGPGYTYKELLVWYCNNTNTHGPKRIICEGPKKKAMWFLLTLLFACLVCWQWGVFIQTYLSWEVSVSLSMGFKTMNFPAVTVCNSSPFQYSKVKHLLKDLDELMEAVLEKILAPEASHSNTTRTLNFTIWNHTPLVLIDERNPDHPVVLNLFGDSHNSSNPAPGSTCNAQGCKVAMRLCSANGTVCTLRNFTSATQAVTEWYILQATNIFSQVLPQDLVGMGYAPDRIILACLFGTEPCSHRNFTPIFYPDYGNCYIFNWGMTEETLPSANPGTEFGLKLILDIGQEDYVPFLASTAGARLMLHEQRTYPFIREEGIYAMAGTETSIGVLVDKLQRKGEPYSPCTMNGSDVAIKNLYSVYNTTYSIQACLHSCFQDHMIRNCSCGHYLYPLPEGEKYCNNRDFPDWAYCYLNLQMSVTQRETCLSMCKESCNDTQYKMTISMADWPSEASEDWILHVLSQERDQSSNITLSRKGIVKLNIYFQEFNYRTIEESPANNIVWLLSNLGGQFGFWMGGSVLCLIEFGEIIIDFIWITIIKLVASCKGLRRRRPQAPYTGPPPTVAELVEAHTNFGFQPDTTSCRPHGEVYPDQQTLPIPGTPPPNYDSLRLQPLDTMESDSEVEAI
T1 sequence (Q9WU39 1-655): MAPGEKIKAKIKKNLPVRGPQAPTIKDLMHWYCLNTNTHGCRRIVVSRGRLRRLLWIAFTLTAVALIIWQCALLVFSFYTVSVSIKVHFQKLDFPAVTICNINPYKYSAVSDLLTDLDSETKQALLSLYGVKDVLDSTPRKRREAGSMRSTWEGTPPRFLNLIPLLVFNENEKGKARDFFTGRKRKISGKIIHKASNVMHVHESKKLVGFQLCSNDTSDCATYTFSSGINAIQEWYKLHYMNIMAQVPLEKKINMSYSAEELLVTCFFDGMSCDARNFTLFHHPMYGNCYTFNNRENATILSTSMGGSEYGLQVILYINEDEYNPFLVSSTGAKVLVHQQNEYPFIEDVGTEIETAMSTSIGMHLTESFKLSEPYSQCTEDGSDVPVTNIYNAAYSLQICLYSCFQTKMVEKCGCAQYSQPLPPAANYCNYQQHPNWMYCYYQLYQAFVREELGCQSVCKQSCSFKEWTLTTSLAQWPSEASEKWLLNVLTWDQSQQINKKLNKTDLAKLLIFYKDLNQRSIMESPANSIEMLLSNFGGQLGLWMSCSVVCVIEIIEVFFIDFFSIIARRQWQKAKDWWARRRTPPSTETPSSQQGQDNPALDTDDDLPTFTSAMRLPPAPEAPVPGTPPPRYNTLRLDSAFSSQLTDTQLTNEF
Kind of experiment: Ussing chamber: inhibition of amiloride sensitive short circuit current (I_sc) in M-1 cells. The class given is cell-based. The note with it: mouse kidney M-1 cells. The procedure:
Mouse kidney M-1 cells were cultivated in DMEM containing 5% FCS and 5 μM dexamethasone for 10 to 12 days on polyester transwell filters. Filters were inserted into a teflon-coated well-plate which fit into the in-house ussing chamber system. Prior to measurement the medium of M-1 cells was replaced with Caco-2 transport buffer (Invitrogen, Germany). During measurements, the Ussing chamber temperature was kept at 37° C. Short circuit currents (I_sc) were measured in the voltage-clamp mode using an in-house built amplifier (Boehringer Ingelheim, Biberach) with the software package Lab View for data acquisition and analysis. The transepithelial electrical resistance (TEER) was determined by the application of voltage steps of ±5 mV every 5 sec. Compounds were administered at a final concentration of 3 μM or at increasing concentrations (1-3-10 μM) to the apical solution. At the end of each experiment the amiloride sensitive I_SC was measured by adding 3 μM amiloride to the apical compartment. Results are expressed as inhibition in percent of the amiloride effect or as IC50. With the example compounds given above, the following IC50 values were determined in the Ussing Chamber assay: […]

By IC50 is commonly meant the concentration needed to halve the response being measured. A low value points to higher potency. `CCOP(=O)(OCC)c1ccc(CN2CCC(NC(N)=NC(=O)c3nc(Cl)c(N)nc3N)CC2)cc1` [Example 1.13] displayed an IC50 of 5 nM.
Then `NC(=NC(=O)c1nc(Cl)c(N)nc1N)N[C@H]1CCN(Cc2ccc(OCC(=O)O)cc2)C1` [Example 8.16], with 31 nM; and `NC(=NC(=O)c1nc(Cl)c(N)nc1N)NC1CCN(Cc2ccccc2C(=O)O)CC1` [Example 8.7], with 243 nM; and `NC(=NC(=O)c1nc(Cl)c(N)nc1N)NC1CCN(Cc2cccc(OCC(=O)O)c2)CC1` [Example 8.15], with 37 nM.
For the molecule `NC(=NC(=O)c1nc(Cl)c(N)nc1N)NC1CCN(Cc2ccc(C(=O)NCCOCCOCCO)cc2)CC1` [Example 1.39], the half-inhibitory concentration (IC50) came out at 6 nM.
For `COC(=O)c1ccc(=O)n(Cc2ccc(CN3CCC(NC(N)=NC(=O)c4nc(Cl)c(N)nc4N)CC3)cc2)c1` [Example 1.5] the value was 7 nM.
`NC(=NC(=O)c1nc(Cl)c(N)nc1N)NC1CCN(Cc2ccc(-n3cc(CCC(=O)N(CCO)CCO)nn3)cc2)CC1` [Example 3.12] had an IC50 of 5 nM.
Then `N/C(=N\C(=O)c1nc(Cl)c(N)nc1N)NC1CCN(Cc2ccc(CO)cc2)CC1` [Example 1.2], with 10 nM.
With `CN(Cc1cn(-c2ccc(CN3CCC(NC(N)=NC(=O)c4nc(Cl)c(N)nc4N)CC3)cc2)nn1)C(=O)CCNC(=O)OC(C)(C)C` [Example 3.18], the IC50 is 5 nM.
Turning to `COC(=O)COc1cccc(CN2CCC(NC(N)=NC(=O)c3nc(Cl)c(N)nc3N)CC2)c1` [Example 1.44], the midpoint of inhibition, the IC50, lay at 20 nM.
On to `NC(=NC(=O)c1nc(Cl)c(N)nc1N)NC1CCN(Cc2ccc(S(=O)(=O)NCCO)cc2)CC1` [Example 1.63], for which it took 6 nM to reach half-maximal inhibition (IC50).
Then `CC(C)(C)OC(=O)c1ccc(CN2CCC[C@H](NC(N)=NC(=O)c3nc(Cl)c(N)nc3N)C2)cc1` [Example 1.59], with 227 nM.
Then `NC(=NC(=O)c1nc(Cl)c(N)nc1N)NC1CCN(Cc2ccc(-c3cn(CCOCCOCCOCCNC(=O)c4cc(OCCOCCOCCO)cc(OCCOCCOCCO)c4)nn3)cc2)CC1` [Example 5.7], with 45 nM.
For `NC(=NC(=O)c1nc(Cl)c(N)nc1N)NC1CCN(Cc2ccc(-n3cc(COCCO)nn3)cc2)CC1` [Example 3.11] the value was 6 nM; for `NC(=NC(=O)c1nc(Cl)c(N)nc1N)NC1CCN(Cc2ccc(C(=O)NCCc3cn(CCCO)cn3)cc2)CC1` [Example 1.52], 2 nM; for `NC(=NC(=O)c1nc(Cl)c(N)nc1N)NC1CCN(Cc2cccc(-c3cn(CCOCCOCCOCCNCCOCCOCCOC(c4ccccc4)(c4ccccc4)c4ccccc4)nn3)c2)CC1` [Example 3.40], 1 nM.
`NC(=NC(=O)c1nc(Cl)c(N)nc1N)N[C@H]1CCCN(Cc2ccc(C(=O)O)cc2)C1` [Example 1.60] gave an IC50 of 165 nM.
Then `NC(=NC(=O)c1nc(Cl)c(N)nc1N)NC1CCN(Cc2cccc(-c3cn(CCOCCOCCOCCNC(=O)c4cc(OCCOCCOCCOCCO)cc(OCCOCCOCCOCCO)c4)nn3)c2)CC1` [Example 5.12], with 62 nM; and `COC(=O)c1ccc(CN2CCC(C)(NC(N)=NC(=O)c3nc(Cl)c(N)nc3N)CC2)cc1` [Example 1.17], with 66 nM; and `N=C(N)c1ccc(CN2CCC(NC(N)=NC(=O)c3nc(Cl)c(N)nc3N)CC2)cc1` [Example 1.55], with 2 nM.
In turn, `NC(=NC(=O)c1nc(Cl)c(N)nc1N)NC1CCN(Cc2ccc(-c3cn(CCOCCOCCOCCNC(=O)c4cc(OCCOCCOCCOCCO)cc(OCCOCCOCCOCCO)c4)nn3)cc2)CC1` [Example 5.5] returned an IC50 of 109 nM.
Then `NC(=NC(=O)c1nc(Cl)c(N)nc1N)NC1CCN(Cc2ccc(-c3cn(CCOCCOCCOC(c4ccccc4)(c4ccccc4)c4ccccc4)nn3)cc2)CC1` [Example 3.28], with 6 nM; and `COC(=O)Cc1cccc(CN2CCC(NC(N)=NC(=O)c3nc(Cl)c(N)nc3N)CC2)c1` [Example 1.6], with 4 nM; and `COC(=O)c1ccc(CN2CCC(N/C(N)=N/C(=O)c3nc(Cl)c(N)nc3N)CC2)c(Cl)c1` [Example 1.12], with 4 nM.
For `NC(=NC(=O)c1nc(Cl)c(N)nc1N)NC1CC2CCC(C1)N2Cc1ccccc1` (single isomer, unassigned) [Example 1.28] the value was 16 nM; for `NC(=NC(=O)c1nc(Cl)c(N)nc1N)NC1CCN(Cc2ccc(-c3cn(CCOCCOCCOCCOCCOCCOCCOCCO)nn3)cc2)CC1` [Example 3.29], 12 nM.
For `NC(=NC(=O)c1nc(Cl)c(N)nc1N)NC1CCN(Cc2ccc(C(=O)NCCc3cccnc3)cc2)CC1` [Example 1.24] the value was 3 nM; for `NC(=NC(=O)c1nc(Cl)c(N)nc1N)NC1CCN(Cc2ccc(-c3cn(CCOCCOC(c4ccccc4)(c4ccccc4)c4ccccc4)nn3)cc2)CC1` [Example 3.30], 1 nM; for `NC(=NC(=O)c1nc(Cl)c(N)nc1N)NC1CCN(Cc2ccc(-c3cn(CCOCCO)nn3)cc2)CC1` [Example 5.6], 3 nM.
Turning to `NC(=NC(=O)c1nc(Cl)c(N)nc1N)NC1CCN(Cc2ccc(CCn3cc(CCC(=O)N4CCOCC4)nn3)cc2)CC1` [Example 3.43], the midpoint of inhibition, the IC50, lay at 15 nM. This IC50 lies about 5-fold higher than the previous one.
For `N/C(=N\C(=O)c1nc(Cl)c(N)nc1N)NC1CCN(Cc2ccc(C(=O)NCCOCCO)cc2)CC1` [Example 1.54] the value was 4 nM.
Then `NC(=NC(=O)c1nc(Cl)c(N)nc1N)NC1CCN(Cc2cccc(C(=O)NCCOCCO)c2)CC1` [Example 1.65], with 4 nM; and `N#Cc1ccc(CN2CCC(N/C(N)=N/C(=O)c3nc(Cl)c(N)nc3N)CC2)cc1` [Example 1.40], with 2 nM; and `NC(=NC(=O)c1nc(Cl)c(N)nc1N)NC1CCN(Cc2cccc(-c3cn(CCOCCOCCOCCNCCOCCOCCO)nn3)c2)CC1` [Example 5.11], with 7 nM.
For `NC(=NC(=O)c1nc(Cl)c(N)nc1N)NC1CCN(Cc2ccc(OCc3cn(CCOCCOCCOCCOCCOCCOC(c4ccccc4)(c4ccccc4)c4ccccc4)nn3)cc2)CC1` [Example 3.23] the value was 13 nM; for `CN(C)CCNC(=O)Cc1ccc(CN2CCC(NC(N)=NC(=O)c3nc(Cl)c(N)nc3N)CC2)cc1` [Example 2.5], 6 nM; for `[N-]=[N+]=Nc1ccc(CN2CCC(N/C(N)=N/C(=O)c3nc(Cl)c(N)nc3N)CC2)cc1` [Example 1.10], 6 nM.
As for `NC(=NC(=O)c1nc(Cl)c(N)nc1N)NC1CCN(Cc2ccc(CCn3cc(COCCO)nn3)cc2)CC1` [Example 3.2], the half-maximal inhibitory concentration (IC50) turned out to be 10 nM.
